Assay results published in patent US20090281025A1, “INHIBITION OF TUMOR GROWTH AND METASTASIS BY ATF2-DERIVED PEPTIDES” (Mount Sinai School Of Medicine of New York University, priority 2004, published 2009).
“Also recorded” adds a separate entry of the source.

Experiments:
[1] = tested on: LU1205 human melanoma cells; test: Growth of LU1205 human melanoma tumors expressing ATF2 peptide in nude mice; type: in vivo, mouse
Source text: LU1205 or FEMX human melanoma tumor-derived cell lines that constitutively express ATF2^51-100 peptide or that contain control vector were each injected subcutaneously into a group of 6 nude mice (10^6 cells per injection) per cell line per experiment. […] The data shown represent three experiments. Bars represent standard deviation, P<0.0015. […] The data shown represent three experiments. Bars represent standard deviation, P<0.0021.
The ability of expressed ATF2^51-100 peptide to affect the tumorigenicity of human melanoma cells in vivo was examined. To this end, growth of LU1205 and FEMX human melanoma cells were monitored in nude mice in the presence or absence of treatment that induced apoptosis in vitro. LU1205, FEMX and SW-1 cells that express control or ATF2^51-100 peptide were trypsinized, resuspended in PBS and injected SC (1×10^6) into 6-7 week old mice in the lower flank. When the tumor reached the size of about 50 mm^3, 10 μM of SB203580 was injected into 4 areas of the LU1205 tumors every 4 days during a 2 week period. For FEMX tumors, UCN-01 (5 mg/Kg) was fed by gavage, three times per week for a total of 2 weeks. Tumor growth was monitored every two days. Tissue samples were fixed in formalin and embedded in paraffin. Hematoxylin and eosin (H&E), TUNEL staining was performed as previously described (Bhoumik et al., Clin. Cancer Res., 2001; 2:331-342).

Jun2-Luc = Jun2-Luc luciferase reporter assay in SW1 cells; type: cell-based, mouse; conditions: SW1 cells expressing peptide, luciferase after 18 hours
Method: SW1 cells constitutively expressing the indicated ATF2 peptides were transfected with either TRE-Luc (FIG. 5A) or with Jun2-Luc (FIG. 5B), and proteins were prepared for analysis of luciferase activity after 18 hours. Analysis was performed in duplicate, and the data reflect three independent experiments. SW1 cells expressing the ATF2 peptides were analyzed to establish the degree of spontaneous (basal) apoptosis as well as apoptosis 24 hours following treatment with the chemotherapeutic drug UCN-01 (FIG. 5C). The data represent triplicate analysis reproduced three times.
Alteration of ATF2 Transcriptional Activity. Assessed next was whether the short peptide caused any change in transcriptional activity mediated by ATF2 and its heterodimeric partners, using the TRE and Jun2 promoter sequences linked to the Luciferase marker gene. These reporter constructs (0.3 μg) were cotransfected with the respective expression vectors into melanoma cells (5×10^5) using Lipofectamine (Invitrogen). Luciferase activity was measured using the Luciferase assay system (Promega).

[2] = tested on: Human melanoma cells LU1205; test: Caspase and PARP cleavage immunoblot in LU1205 cells; type: cell-based; conditions: peptides by transfection, UCN-01 (5 μm) 24 hours
Method: Human melanoma cells LU1205 were transfected with the nucleic acid molecules that encode either ATF2^51-100 peptide or ATF2^51-60 peptide. Twenty-four hours after transfection, cells were treated with of UCN-01 (5 μm) for 24 hours. Immunoblotting analysis was performed using caspase 9 and PARP antibodies, and β-actin was used as a loading control (FIG. 6A). The same experiment was performed in SW-1 cells (FIG. 6B). Stars point to the position of the uncleaved form whereas arrows point to the cleaved products.
Effect on Apoptosis. Assessed next was the degree of apoptosis in SW1 cells under normal growth (spontaneous) as well as following treatment with chemotherapeutic drugs. Cells were analyzed to detect spontaneous (basal) or induced apoptosis [following treatment with the kinase inhibitor UCN-01 (kindly provided by NCI repository) for 36 hours]. Apoptosis was measured by using FACS (Ivanov et al., Mol. Cell, 2001, 7:517-28) to quantify the percentage of hypodiploid nuclei undergoing DNA fragmentation. Nucleation as a marker of apoptosis was monitored via DAPI staining of cells at indicated time points after their treatment. Caspase activity was monitored by immunoblots using antibodies to caspase 9 (Santa Cruz). PARP cleavage was monitored by corresponding antibodies (PharMingen).

## ATF2^51-100: amino-terminal peptide of ATF2, amino acid residue 51 to 100 (about a 50 amino acid peptide), expressed in tumor cells (MTLKFGPARNDSVIVADQTPTPTRFLKNCEEVGLFNELASPFENEFKKAS; UniProt P15336 51-100, looked up, fragment)
[1]; LU1205 cells constitutively expressing peptide, SC in nude mice
  tumor growth rate: reduced the growth rates; also recorded: inhibits growth
[1]; peptide-expressing LU1205 tumors plus p38 inhibitor SB203580 10 μM intratumoral
  tumor growth with additional treatment: additional decrease in growth
Jun2-Luc
  Jun2-Luc transcriptional activity: efficiently inhibited
[2]
  activation of caspase 9 (cleavage fragments): activation of caspase 9 even prior to treatment with UCN-01
